This passage reports IC50 results from BindingDB's records for doi:10.1021/jm00111a027 (Merck Sharp & Dohme Research Laboratories, 1991).

Residues, ends and D or L forms follow the SMILES beside them. *: point of attachment. X4 = CCCCCC[C@H](CC(C)C)N*; X8 = CCCC[C@@H](CC(C)C)N*; X9 = CCC[C@@H](CC(C)C)N*; X7 = CCCC(CCC)N*

This experiment in a line: Compound was evaluated for mitogenic inhibition against Swiss 3T3 murine fibroblast cells.

In the case of `CCCC(CCC)NC(=O)[C@H](Cc1cnc[nH]1)NC(=O)CNC(=O)[C@@H](NC(=O)[C@H](C)NC(=O)[C@H](Cc1c[nH]c2ccccc12)NC(=O)[C@H](Cc1cnc[nH]1)NC(C)=O)C(C)C` [2-{2-[2-[2-Acetylamino-3-(3H-imidazol-4-yl)-propionylamino]-3-(1H-indol-3-yl)-propionylamino]-propionylamino}-N-{[2-(3H-imidazol-4-yl)-1-(1-propyl-butylcarbamoyl)-ethylcarbamoyl]-methyl}-3-methyl-butyramide] (Ac-HWAVGH-X7), the half-inhibitory concentration (IC50) (in general, the point on the concentration scale where inhibition reaches its midpoint) is 80 nM.
On to `CCC[C@@H](CC(C)C)NC(=O)[C@H](Cc1cnc[nH]1)NC(=O)CNC(=O)[C@@H](NC(=O)[C@H](C)NC(=O)[C@H](Cc1c[nH]c2ccccc12)NC(=O)[C@H](Cc1cnc[nH]1)NC(C)=O)C(C)C` [2-{2-[2-[2-Acetylamino-3-(3H-imidazol-4-yl)-propionylamino]-3-(1H-indol-3-yl)-propionylamino]-propionylamino}-N-{[2-(3H-imidazol-4-yl)-1-(3-methyl-1-propyl-butylcarbamoyl)-ethylcarbamoyl]-methyl}-3-methyl-butyramide] (Ac-HWAVGH-X9), for which the half-maximal inhibitory concentration (IC50) was found to be 35 nM.
With `CCOC(=O)[C@H](CC(C)C)NC(=O)[C@H](Cc1c[nH]cn1)NC(=O)CNC(=O)[C@@H](NC(=O)[C@H](C)NC(=O)[C@H](Cc1c[nH]c2ccccc12)NC(=O)[C@H](Cc1c[nH]cn1)NC(C)=O)C(C)C` [2-[2-[2-(2-{2-[2-[2-Acetylamino-3-(3H-imidazol-4-yl)-propionylamino]-3-(1H-indol-3-yl)-propionylamino]-propionylamino}-3-methyl-butyrylamino)-acetylamino]-3-(3H-imidazol-4-yl)-propionylamino]-4-methyl-pentanoic acid ethyl ester] (Ac-HWAVGHL-OEt) the figure was 20 nM; with `CCCCCC[C@H](CC(C)C)NC(=O)[C@H](Cc1cnc[nH]1)NC(=O)CNC(=O)[C@@H](NC(=O)[C@H](C)NC(=O)[C@H](Cc1c[nH]c2ccccc12)NC(=O)[C@H](Cc1cnc[nH]1)NC(C)=O)C(C)C` [2-{2-[2-[2-Acetylamino-3-(3H-imidazol-4-yl)-propionylamino]-3-(1H-indol-3-yl)-propionylamino]-propionylamino}-N-{[2-(3H-imidazol-4-yl)-1-(1-isobutyl-heptylcarbamoyl)-ethylcarbamoyl]-methyl}-3-methyl-butyramide] (Ac-HWAVGH-X4), 7 nM; with `CCCC[C@@H](CC(C)C)NC(=O)[C@H](Cc1c[nH]cn1)NC(=O)CNC(=O)[C@@H](NC(=O)[C@H](C)NC(=O)[C@H](Cc1c[nH]c2ccccc12)NC(=O)[C@H](Cc1c[nH]cn1)NC(C)=O)C(C)C` [2-{2-[2-[2-Acetylamino-3-(3H-imidazol-4-yl)-propionylamino]-3-(1H-indol-3-yl)-propionylamino]-propionylamino}-N-{[2-(3H-imidazol-4-yl)-1-(1-isobutyl-pentylcarbamoyl)-ethylcarbamoyl]-methyl}-3-methyl-butyramide] (Ac-HWAVGH-X8), 6 nM.
Under `CCOC[C@H](CC(C)C)NC(=O)[C@H](Cc1c[nH]cn1)NC(=O)[C@H](C)NC(=O)[C@@H](NC(=O)[C@H](C)NC(=O)[C@H](Cc1c[nH]c2ccccc12)NC(=O)[C@H](Cc1c[nH]cn1)NC(C)=O)C(C)C` [2-{2-[2-[2-Acetylamino-3-(3H-imidazol-4-yl)-propionylamino]-3-(1H-indol-3-yl)-propionylamino]-propionylamino}-N-{1-[1-(1-ethoxymethyl-3-methyl-butylcarbamoyl)-2-(3H-imidazol-4-yl)-ethylcarbamoyl]-ethyl}-3-methyl-butyramide] stands > 300 nM.
